Assays:
Format in all cases: cell-based
[1] = system: human CD4+ and CD8+ T cells; assay: Western blot for mTORC1 complex protein Raptor after 3-day de-differentiation culture
Text: After the 3-day culture interval, the T cells were harvested, and protein was isolated and subjected to western blot analysis for the mTORC1 complex protein, Raptor, and the housekeeping gene, Actin.

[2] = system: human CD4+ and CD8+ T cells; assay: Western blot for autophagy-related molecule p62 after 3-day de-differentiation culture; conditions: 3-day culture, 1:3 bead-to-T cell ratio; temsirolimus 1.0 or 0.3 µM, Vitamin D 0.01-1.0 nM, Daclizumab 50 µg/ml
Text: After the 3-day culture interval, the T cells were harvested, and protein was isolated and subjected to western blot analysis for the autophagy-related gene, p62, and the housekeeping gene, Actin.

[3] = system: human CD4+ and CD8+ T cells; assay: RNA expression analysis (Luminex Quantigene) after 3-day de-differentiation culture; conditions: relative to control Th1/Tc1 culture, temsirolimus 1 µM
Procedure: At the end of the de-differentiation interval, cells were harvested, RNA was isolated, and RNA expression analysis was performed by Luminex Quantigene method. All results shown represent relative RNA expression, with results normalized to a value of 1.0 for the Th1/Tc1 control culture.

[4] = system: human CD4+ and CD8+ T cells; assay: Luminex cytokine analysis of de-differentiated T cells cultured in polarization-neutral media; conditions: Vitamin D concentration during the de-differentiation interval
Procedure: FIGS. 11A-11D depict the inflammatory Th1/Th17 cytokine analysis of cultured de-differentiated T cells in polarization-neutral media. […] After 3-days, the de-differentiated T cells were co-stimulated (typical bead-to-T cell ratio of 3:1) in media supplemented with the T cell growth cytokines rhu IL-2 (100 IU/ml) and rhu IL-7 (10 ng/ml), which are not potent in terms of inducing T cell polarization. After 10 days in culture (total, day 13 of culture), the T cells were harvested, washed, and re-stimulated with 3/28 beads (3:1 ratio) for 24 hr; the resultant supernatant was harvested and tested for cytokine content by Luminex multi-analyte method. All results shown are expressed as cytokine level in pg per ml per 1 × 10^6 cells/ml/24 hr.
FIGS. 12A-12D depicts the IL-2 and Th2-type cytokine analysis of cultured de-differentiated T cells in polarization-neutral media. […] After 3-days, the de-differentiated T cells were co-stimulated (typical bead-to-T cell ratio of 3:1) in media supplemented with the T cell growth cytokines rhu IL-2 (100 IU/ml) and rhu IL-7 (10 ng/ml), which are not potent in terms of inducing T cell polarization. […] All results shown are expressed as cytokine level in pg per ml per 1 × 10^6 cells/ml/24 hr.

[5] = system: human CD4+ and CD8+ T cells; assay: T cell yield at day 13 after de-differentiation interval and re-stimulation without inhibitors; conditions: columns #5 and #6; Vitamin D reduced to 0.01 nM or increased to 1.0 nM
Procedure: After 10 days (13 days of total culture), the T cells were harvested, enumerated, and evaluated by flow cytometry. FIG. 8 illustrates the effect of culture components during the de-differentiation interval on subsequent T cell yield (at day 13 of culture). […] After the 3-day interval, media was exchanged to fresh X-Vivo 20 without inhibitors, high-level co-stimulation was provided (3:1 bead-to-T cell ratio), and the T cell growth cytokines IL-2 (100 IU/ml) and IL-7 (10 ng/ml) were added. At day 13 of culture, viable T cells were enumerated and the overall yield is shown relative to day 0 input number.

[6] = system: human CD4+ and CD8+ T cells; assay: Western blot for Raptor, Rictor, p70S6K, SGK1 after 3-day de-differentiation culture; conditions: relative to control culture without the three inhibitors; temsirolimus 1 µM, Vitamin D 0.03-1.0 nM, Daclizumab 50 µg/ml
Text: After the 3-day culture interval, the T cells were harvested, and protein was isolated and subjected to western blot analysis for the mTORC1 complex protein, Raptor; the mTORC2 complex protein, Rictor; the post-mTORC1 protein p70S6K; the post-mTORC2 protein, SGK1; and the housekeeping gene, GAPDH.

[7] = 3-day culture, bead-to-T cell ratio 1:3, Vitamin D 0.1 or 1.0 nM

## C=C1/C(=C\C=C2/CCC[C@]3(C)[C@@H]([C@H](C)CCCC(C)(C)O)CC[C@@H]23)C[C@@H](O)C[C@@H]1O [Vitamin D, 1,25-vitamin D]
[1]; Vitamin D level reduced to 0.01 nM
  Raptor inhibition at Vitamin D 0.01 nM: sub-optimal Raptor inhibition
[1]; culture 7, 0.3 nM Vitamin D, versus 0.1 nM
  Raptor expression at Vitamin D 0.3 nM: higher level of Raptor expression
[2]
  p62 expression (western blot, normalized by actin): increased p62 expression
[3]; [7]
  Granzyme B RNA expression: reduction
  IFN-gamma RNA expression: reduction
  IL-10 RNA expression: reduction
[3]; Vitamin D 1.0 nM
  IL-7 receptor alpha RNA expression: not Vitamin D alone
  KLF4 RNA expression: neither temsirolimus nor Vitamin D alone increased
  KLF10 RNA expression: does not act alone to up-regulate
[3]; Vitamin D 0.1 to 1.0 nM
  HIF-1-α RNA expression: did not down-regulate
  Nanog transcription factor RNA expression: does not act alone to up-regulate
  STAT1 RNA expression: acts alone to beneficially down-regulate
  T-BET RNA expression: acts alone to beneficially down-regulate
[4]
  IFN-γ and TNF-α levels with Vitamin D 0.01 nM relative to 0.1 nM: somewhat higher levels
[5]
  T cell yield at day 13 with Vitamin D 0.01 nM or 1.0 nM: very low yield
[6]
  Rictor expression (western blot): effective
